“And” between values parts separate entries of the source, which are not always exact repeats. Equal values may be shown once. “Also recorded” adds a separate entry of the source.
Key:
[1] = Relative quantum yield measurement against ICG standard; assay type: physicochemical; settings: at pH 4.0, PBS
Method: Spectroscopic analysis. Stock solutions (1 mM in DMSO) of CypH-11, CypH-1, and Cy7 were stored at a −30° C. freezer and used for the following experiments. For the pKa measurement, the respective compound was diluted in 20 mM phosphate-buffered solution (PBS, pH 2.0-11.0) to a final concentration of 2 μM. The fluorescence intensity (λex=725 nm and λcm=785 nm) was measured on a plate reader (Tecan Infinite M1000 Pro), and the fluorescence images were recorded with a fluorescence imaging system (Bruker In-vivo F Pro). For the quantum yield measurement, indocyanine green (ICG, Φ=1.2% in water) was used as the standard compound. The respective compound (0.4, 0.8, 1.2, 1.6, and 2.0 μM) in PBS solutions (pH=4.0 and pH=7.4) was measured using a Cary 60 UV-Vis spectrophotometer and Cary Eclipse fluorescence spectrophotometer (Agilent). The slope of fluorescence vs absorbance was compared with that of ICG to calculate the relative quantum yield.

[2] = system: SKOV3/GFP-Luc disseminated peritoneal tumors; experiment: In vivo fluorescence imaging of disseminated peritoneal tumors after IP administration; design: species or system mice
Method: (§1) Tumor models of subcutaneous implants and peritoneal implants. All animal procedures were carried out in compliance with the approved animal protocols and guidelines of the Institutional Animal Care and Use Committee at Weil Cornell Medical College. Mice (female, SCID Hairless Outbred Mouse) were purchased from Charles River (Wilmington, MA). To establish the subcutaneous implants, a suspension of OVASAHO/RFP-Luc cells (5.0×10^6) or SKOV3/GFP-Luc cells (5.0×10^6) in 100 μL PBS was inoculated into each flank of the female nude mice on both sides. After two weeks, the tumor implants grew to around 5 mm in size and were used for the spray experiment. To establish the peritoneal implants, SKOV3/GFP-Luc cells (5.0×10^6) suspended in […] were injected into the abdominal cavities of the female nude mice. After two weeks, the tumor growth was examined with an in vivo bioluminescence imaging system followed by peritoneal injection of D-luciferin potassium solution (200 μL, 15 mg/mL) for 10 min. Generally, mice bearing multiple disseminated peritoneal implants of 5 mm size in diameter were used for the experiment.
In vivo fluorescence imaging of disseminated peritoneal tumors. […] The fluorescence images were captured for the whole cavity under both the GFP and Cy7 channels. […] Regions of interest (ROI, n=6, and average area=0.28±0.1 cm^2) within the tumor nodules and in the adjacent normal areas in the peritoneal cavity were drawn and calculated for tumor-to-normal tissue ratio.
(§2) Histology. To gain knowledge about the CypH-11 distribution in tumors after administration via spray and i.p. injection, the tumors were excised and analyzed. […] The slides were imaged first with a fluorescence microscope (EVOS, Thermofisher Scientific, Waltham, MA) and were subsequently stained with hematoxylin and eosin Y solution (H&E) to assess their histologic alterations under a light microscope.

[3] = system: SKOV3/GFP-Luc subcutaneous tumors; experiment: In vivo fluorescence imaging of subcutaneous tumors by spraying, SKOV3/GFP-Luc model; design: species or system mice; settings: for signal to background ratio: 2 μM
Method: as §1
In vivo fluorescence imaging of subcutaneous tumors. Two subcutaneous tumor models (OVASAHO/RFP-Luc and SKOV3/GFP-Luc) were used to compare the imaging capability of CypH-11, CypH-1, and Cy7. Mice bearing the subcutaneous implants were anesthetized in an induction chamber using 2% isoflurane, and anesthesia was maintained with 1.5-2.0% isoflurane via a nose cone. Sterile surgical tools were used to remove skin around the tumor. The mice images were captured using an IVIS SpectrumCT System from PerkinElmer (Waltham, MA). OVASAHO/RFP-Luc and SKOV3/GFP-Luc tumors were captured under an RFP channel (Excitation: 520-550 nm and Emission: 570-590 nm) and a GFP channel (Excitation: 450-480 nm and Emission: 510 530 nm), respectively. A Cy7 channel (Excitation: 730-760 nm and Emission: 790-810 nm) was applied to evaluate the fluorescence generated by CypH-11, CypH-1, and Cy7. After skin removal, the tumor area and the background fluorescence under the Cy7 channel were measured first. Solutions of CypH-11, CypH-1, and Cy7 (2 μM each) were sprayed on the surgical area, and the fluorescence of the Cy7 channel was measured continuously at each time point (1, 3, 5, 7, 10, and 15 min). Ten, five, and three OVASAHO tumors were used to evaluate CypH-11, CypH-1, and Cy7, respectively. Six SKOV3 tumors were used to evaluate CypH-11. To evaluate the tumor-to-normal tissue ratio, the whole tumor regions and the adjacent open-skin areas were drawn, and their fluorescence intensity was acquired by the IVIS software. Tumor-to-normal tissue ratio value was calculated as the average fluorescence intensity of the tumor divided by that of the normal area. Also, tumor-bearing mice were euthanized by carbon dioxide inhalation or a high dose of isoflurane (5%). The subcutaneous tumors and the adjacent muscles were then extracted, and CypH-11 (2 μM) was sprayed onto them. Images were subsequently captured under GFP/RFP/Cy7 channels.
as §2

CC(C)N(C)c1ccc(OC2=C(/C=C/C3=[N+](C(C)C)c4ccccc4C3(C)C)CCC/C2=C\C=C2\N(C(C)C)c3ccccc3C2(C)C)cc1.[I-] [CypH-11]
quantum yield (Φ) [1]: 3.3%
tumor signal higher than the background of the peritoneum, liver, and intestine ([2]; 1 h post IP, 200 μL 2 μM in PBS): 3- to 4 fold
size of smallest tumors detected ([2]; 1 h post IP, no washing): 1 mm and < 1 mm
NIR signal depth in tumor after IP injection ([2]; IP, within an hour, histology): 6-7 layers of cells
signal to background ratio ([3]; 1 min after spray): 1.3
signal to background ratio ([3]; 5 min after spray): 1.4
signal to background ratio ([3]; 10 min after spray): 1.6
NIR signal depth in tumor after spray ([3]; sprayed, 15 min, histology): 2-3 layers of cells
CypH-11 signal when sprayed ex vivo on excised 20-min old dead tissues ([3]; tumor and muscle excised, held 20 min, then sprayed): no NIR signal could be detected; also recorded: No CypH-11 signal in tumor or muscle was observed
